Assay [1] deals with recombinant human Mcl-1 (residues 171-327) / Bim interaction (Homo sapiens (Human), UniProt Q07820). Briefly: biochemical. Format: binding. The following applies: read-out: Mcl-1 HTRF IC50.
Assay [2] concerns human multiple myeloma cell line, OPM-2. Briefly: Cell viability assay (OPM-2 10 FBS), CellTiter-Glo. Format: cell-based. The essentials:
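Serially diluted test compounds are incubated 16 h with cells (3000/well) in RPMI 1640 supplemented with 10% FBS. Viability is then measured by luminescence and IC50 calculated by 4-parameter logistic fit.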

The mark [3] stands for this setting: TR-FRET, Mcl-1(171-327) / biotin-Bim (51-76).
[4] abbreviates: Homo sapiens, OPM-2, 16 h, read-out: OPM-2 10% FBS IC50 IP, OPM-2 cells, 10% FBS, 16 h, CellTiter-Glo.
The mark [5] stands for this setting: 0.1 nM Mcl-1(171-327), 0.05 nM biotin-Bim (51-76).
Setting [6] is: Homo sapiens, OPM-2, 16 h, read-out: OPM-2 10% FBS IC50 IP, OPM-2 cells, 10% FBS, 16 h incubation.
The mark [7] stands for this setting: read-out: OPM-2 10% FBS IC50 IP, OPM-2 cells, 10% FBS, 16 h incubation.
[8] abbreviates: read-out: OPM-2 10% FBS IC50 IP, OPM-2 cells, 10% FBS, 16 h, CellTiter-Glo.

Where two headings read alike, the source gives them in different places.

Sequence of recombinant human Mcl-1 (residues 171-327) / Bim interaction (Q07820 171-327): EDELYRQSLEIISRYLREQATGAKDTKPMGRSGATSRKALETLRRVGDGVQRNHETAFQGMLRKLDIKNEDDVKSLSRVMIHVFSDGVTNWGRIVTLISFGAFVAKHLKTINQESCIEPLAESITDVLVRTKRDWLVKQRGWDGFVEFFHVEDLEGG

`C[C@@H]1[C@@H](C)C/C=C/[C@@](O)(CC(=O)N2CCN3CCOC[C@@H]3C2)[C@@H]2CC[C@H]2CN2C[C@@]3(CCCc4cc(Cl)ccc43)COc3ccc(cc32)C(=O)NS1(=O)=O` [Example 100305, (1S,3′R,6′R,7′S,8′E,11′S,12′R)-6-chloro-7′-(2-((9aS)-hexahydropyrazino[2,1-c][1,4]oxazin-8(1H)-yl)-2-oxoethyl)-7′-hydroxy-11′,12′-dimethyl-3,4-dihydro-2H,15′H-spiro[naphthalene-1,22′-[20]oxa[13]thia[1,14]diazatetracyclo [14.7.2.0~3,6~.0~19,24~]pentacosa[8,16,18,24]tetraen]-15′-one 13′,13′-dioxide]: the IC50 – broadly, the concentration at which inhibition is half-maximal – in assay [1] (setting [3]) was found to be 0.473 nM; in assay [2] (setting [4]), 1140 nM.
For `CO[C@@]1(CN2CCN(Cc3nc(C)no3)CC2)/C=C/C[C@H](C)[C@@H](C)S(=O)(=O)NC(=O)c2ccc3c(c2)N(C[C@@H]2CC[C@H]21)C[C@@]1(CCCc2cc(Cl)ccc21)CO3` [Example 317, (1S,3′R,6′R,7′S,8′E,11′S,12′R)-6-chloro-7′-methoxy-11′,12′-dimethyl-7′-((4-((3-methyl-1,2,4-oxadiazol-5-yl)methyl)-1-piperazinyl)methyl)-3,4-dihydro-2H,15′H-spiro[naphthalene-1,22′-[20]oxa[13]thia[1,14]diazatetracyclo [14.7.2.0~3,6~.0~19,24~]pentacosa[8,16,18,24]tetraen]-15′-one 13′,13′-dioxide], the IC50 came to 0.186 nM in assay [1] (setting [5]) and 88 nM in assay [2] (setting [6]).
As for `CC[C@@H]1CCCC[C@](COC)(OC)[C@@H]2CC[C@H]2CN2C[C@@]3(CCCc4cc(Cl)ccc43)COc3ccc(cc32)C(=O)NS1(=O)=O` [Example 100037, (1S,3′R,6′R,7′S,12′R)-6-chloro-12′-ethyl-7′-methoxy-7′-(methoxymethyl)-3,4-dihydro-2H,15′H-spiro[naphthalene-1,22′-[20]oxa[13]thia[1,14]diazatetracyclo [14.7.2.0~3,6~.0~19,24~]pentacosa[16,18,24]trien]-15′-one 13′,13′-dioxide], the IC50 was determined as 1.8 nM in assay [1] (setting [3]) and 1920 nM in assay [2] (setting [4]).
As to `COCC[C@@H]1[C@@H](C)C/C=C/[C@](CN2CCN(C3COC3)CC2)(OC)[C@@H]2CC[C@H]2CN2C[C@@]3(CCCc4cc(Cl)ccc43)COc3ccc(nc32)C(=O)NS1(=O)=O` [Example 23, (1S,3′R,6′R,7′S,8′E,11′S,12′R)-6-chloro-7′-methoxy-12′-(2-methoxyethyl)-11′-methyl-7′-((4-(3-oxetanyl)-1-piperazinyl)methyl)-3,4-dihydro-2H,15′H-spiro[naphthalene-1,22′-[20]oxa[13]thia[1,14,25]triazatetracyclo [14.7.2.0~3,6~.0~19,24~]pentacosa[8,16,18,24]tetraen]-15′-one 13′,13′-dioxide], the 50% inhibitory concentration (IC50) was 0.071 nM in assay [1] (setting [5]) and 24 nM in assay [2] (setting [6]).
With `CO[C@]1(CCN2CCCCC2)/C=C/C[C@H](C)[C@@H](C)S(=O)(=O)NC(=O)c2ccc3c(c2)N(C[C@@H]2CC[C@H]21)C[C@@]1(CCCc2cc(Cl)ccc21)CO3` [Example 100449, (1S,3′R,6′R,7′R,8′E,11′S,12′R)-6-chloro-7′-methoxy-11′,12′-dimethyl-7′-(2-(1-piperidinyl)ethyl)-3,4-dihydro-2H,15′H-spiro[naphthalene-1,22′-[20]oxa[13]thia[1,14]diazatetracyclo [14.7.2.0~3,6~.0~19,24~]pentacosa[8,16,18,24]tetraen]-15′-one 13′,13′-dioxide], the values for the IC50 in assay [1] (setting [3]) and in assay [2] (setting [4]) were 0.071 nM and 171 nM, respectively.
Take `CO[C@]1(CN2CCN3CCC[C@@H]3C2)/C=C/C[C@H](C)[C@@H](C)S(=O)(=O)NC(=O)c2ccc3c(c2)N(C[C@@H]2CC[C@H]21)C[C@@]1(CCCc2cc(Cl)ccc21)CO3` [Example 83]: the IC50 in assay [1] (setting [5]) came to 0.223 nM; in assay [2] (setting [7]), 245 nM.
As to `CC[C@]1(CO)/C=C/C[C@H](C)[C@@H](C)S(=O)(=O)NC(=O)c2ccc3c(c2)N(C[C@@H]2CC[C@H]21)C[C@@]1(CCCc2cc(Cl)ccc21)CO3` (single isomer, unassigned) [Example 100605], the concentration for half-maximal inhibition (IC50) in assay [1] (setting [3]) is 3.25 nM; in assay [2] (setting [4]) it was 7950 nM.
As for `C[C@@H]1[C@@H](C)CCC[C@]2(CN3CCOC[C@H]3CO2)[C@@H]2CC[C@H]2CN2C[C@@]3(CCCc4cc(Cl)ccc43)COc3ccc(cc32)C(=O)NS1(=O)=O` (single isomer, unassigned) [Example 399], the IC50 in assay [1] (setting [5]) came out at 0.401 nM; in assay [2] (setting [7]) it was 2100 nM.
Regarding `CO[C@@]1(CN2CCN(CC(F)(F)F)CC2)/C=C/C[C@H](C)[C@@H](C)S(=O)(=O)NC(=O)c2ccc3c(c2)N(C[C@@H]2CC[C@H]21)C[C@@]1(CCCc2cc(Cl)ccc21)CO3` [Example 248, (1S,3′R,6′R,7′S,8′E,11′S,12′R)-6-chloro-7′-methoxy-11′,12′-dimethyl-7′-((4-(2,2,2-trifluoroethyl)-1-piperazinyl)methyl)-3,4-dihydro-2H,15′H-spiro[naphthalene-1,22′-[20]oxa[13]thia[1,14]diazatetracyclo [14.7.2.0~3,6~.0~19,24~]pentacosa[8,16,18,24]tetraen]-15′-one 13′,13′-dioxide], the concentration for half-maximal inhibition (IC50) in assay [1] (setting [5]) came to 0.222 nM; in assay [2] (setting [6]) it was 518 nM.
Turning to `C[C@@H]1[C@@H](C)CCC[C@]2(CO2)[C@@H]2CC[C@H]2CN2C[C@@]3(CCCc4cc(Cl)ccc43)COc3ccc(cc32)C(=O)NS1(=O)=O` (stereo in doubt) [Example 100164], the IC50 in assay [1] (setting [3]) was 0.917 nM; in assay [2] (setting [4]), 967 nM.
For the compound `C[C@@H]1[C@@H](C)C/C=C/[C@](O)(c2ncccc2F)[C@@H]2CC[C@H]2CN2C[C@@]3(CCCc4cc(Cl)ccc43)COc3ccc(cc32)C(=O)NS1(=O)=O` [Example 100385, (1S,3′R,6′R,7′R,8′E,11′S,12′R)-6-chloro-7′-(3-fluoro-2-pyridinyl)-7′-hydroxy-11′,12′-dimethyl-3,4-dihydro-2H,15′H-spiro[naphthalene-1,22′-[20]oxa[13]thia[1,14]diazatetracyclo [14.7.2.0~3,6~.0~19,24~]pentacosa[8,16,18,24]tetraen]-15′-one 13′,13′-dioxide], the results for the half-inhibitory concentration (IC50) in assay [1] (setting [3]) and in assay [2] (setting [4]) were 0.144 nM and 144 nM, respectively.
Regarding `C[C@@H]1[C@@H](C)CCC[C@@](O)(CCN2CCCCC2)[C@@H]2CC[C@H]2CN2C[C@@]3(CCCc4cc(Cl)ccc43)COc3ccc(cc32)C(=O)NS1(=O)=O` [Example 100092, (1S,3′R,6′R,7′R,11′S,12′R)-6-chloro-7′-hydroxy-11′,12′-dimethyl-7′-(2-(1-piperidinyl)ethyl)-3,4-dihydro-2H,15′H-spiro[naphthalene-1,22′-[20]oxa[13]thia[1,14]diazatetracyclo [14.7.2.0~3,6~.0~19,24~]pentacosa[16,18,24]trien]-15′-one 13′,13′-dioxide], the IC50 in assay [1] (setting [3]) amounted to 4.02 nM; in assay [2] (setting [8]) it was 2210 nM.
In the same order, the values of `C=CC[C@]1(O)CCC[C@H](C)[C@@H](C)S(=O)(=O)NC(=O)c2ccc3c(c2)N(C[C@@H]2CC[C@H]21)C[C@@]1(CCCc2cc(Cl)ccc21)CO3` (single isomer, unassigned) [Example 100266] are 0.292 nM and 571 nM.
Regarding `C[C@@H]1[C@@H](C)C/C=C/[C@@](C)(O)[C@@H]2CC[C@H]2CN2C[C@@]3(CCCc4cc(Cl)ccc43)COc3ccc(cc32)C(=O)NS1(=O)=O` [Example 100182, (1S,3′R,6′R,7′R,8′E,11′S,12′R)-6-chloro-7′-hydroxy-7′,11′,12′-trimethyl-3,4-dihydro-2H,15′H-spiro[naphthalene-1,22′-[20]oxa[13]thia[1,14]diazatetracyclo [14.7.2.0~3,6~.0~19,24~]pentacosa[8,16,18,24]tetraen]-15′-one 13′,13′-dioxide], the IC50 came to 0.863 nM in assay [1] and 827 nM in assay [2] (setting [4]).
Turning to `CO[C@]1(CN2CCN(CC(F)F)CC2)/C=C/C[C@H](C)[C@@H](C)S(=O)(=O)NC(=O)c2ccc3c(c2)N(C[C@@H]2CC[C@H]21)C[C@@]1(CCCc2cc(Cl)ccc21)CO3` [Example 95, (1S,3′R,6′R,7′R,8′E,11′S,12′R)-6-chloro-7′-((4-(2,2-difluoroethyl)-1-piperazinyl)methyl)-7′-methoxy-11′,12′-dimethyl-3,4-dihydro-2H,15′H-spiro[naphthalene-1,22′-[20]oxa[13]thia[1,14]diazatetracyclo [14.7.2.0~3,6~.0~19,24~]pentacosa[8,16,18,24]tetraen]-15′-one 13′,13′-dioxide], the IC50 in assay [1] (setting [5]) amounted to 0.189 nM; in assay [2] (setting [6]), 338 nM.
Regarding `COC1CCN(C[C@]2(OC)/C=C/C[C@H](C)[C@@H](C)S(=O)(=O)NC(=O)c3ccc4c(c3)N(C[C@@H]3CC[C@H]32)C[C@@]2(CCCc3cc(Cl)ccc32)CO4)CC1` [Example 117, (1S,3′R,6′R,7′S,8′E,11′S,12′R)-6-chloro-7′-methoxy-7′-((4-methoxy-1-piperidinyl)methyl)-11′,12′-dimethyl-3,4-dihydro-2H,15′H-spiro[naphthalene-1,22′-[20]oxa[13]thia[1,14]diazatetracyclo [14.7.2.0~3,6~.0~19,24~]pentacosa[8,16,18,24]tetraen]-15′-one 13′,13′-dioxide], the IC50 is 0.352 nM in assay [1] (setting [5]) and 358 nM in assay [2] (setting [6]).

These data come from patent US10821115B2, “Compounds that inhibit Mcl-1 protein” (priority 2017, dated 2020).
